Results taken from ChEMBL document CHEMBL1201862, “PubChem BioAssay data set” (2004).
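Values below derive from 48-hour exposures of cells grown in 96-well plates, with endpoints linearly interpolated between the two concentrations bracketing the appropriate inhibition level. Here, GI50 denotes the concentration required for 50% inhibition of growth.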 Activity calls are given as the source filed them. No stated cut-off is given here; in the data, active = GI50 up to about 1.1 µM and inactive = higher.

What was measured:
Experiment in all cases: inhibition of tumour cell growth, NCI panel, 48 h
[1] = tested on: 786-0
[2] = tested on: HOP-92
[3] = tested on: M19-MEL
[4] = tested on: UO-31
[5] = tested on: HOP-18
[6] = tested on: UACC-62
[7] = tested on: TK-10
[8] = tested on: M14
[9] = tested on: SW-620
[10] = tested on: T47D
[11] = tested on: SN12C
[12] = tested on: Hs-578T
[13] = tested on: LXFL 529
[14] = tested on: DMS-114
[15] = tested on: MCF7
[16] = tested on: HCT-15
[17] = tested on: SK-MEL-2
[18] = tested on: SK-OV-3
[19] = tested on: OVCAR-5
[20] = tested on: HOP-62
[21] = tested on: CAKI-1
[22] = tested on: PC-3
[23] = tested on: RXF 393
[24] = tested on: IGROV-1
[25] = tested on: SK-MEL-28
[26] = tested on: OVCAR-8
[27] = tested on: MOLT-4
[28] = tested on: KM-20L2
[29] = tested on: SF-295
[30] = tested on: BT-549
[31] = tested on: SK-MEL-5
[32] = tested on: XF498
[33] = tested on: MDA-MB-231
[34] = tested on: HT-29
[35] = tested on: NCI-H460
[36] = tested on: SNB-19
[37] = tested on: A549
[38] = tested on: K562
[39] = tested on: UACC-257
[40] = tested on: Malme-3M
[41] = tested on: NCI-H522
[42] = tested on: OVCAR-4
[43] = tested on: U-251
[44] = tested on: CCRF-CEM
[45] = tested on: ACHN
[46] = tested on: OVCAR-3
[47] = tested on: SR
[48] = tested on: DU-145
[49] = tested on: MDA-N
[50] = tested on: EKVX
[51] = tested on: HL-60
[52] = tested on: SNB-75
[53] = tested on: NCI/ADR-RES
[54] = tested on: SF-539
[55] = tested on: DMS-273
[56] = tested on: NCI-H23
[57] = tested on: HCC 2998
[58] = tested on: NCI-H226
[59] = tested on: HCT-116
[60] = tested on: COLO 205
[61] = tested on: SF-268
[62] = tested on: KM12
[63] = tested on: DLD-1
[64] = tested on: A498
[65] = tested on: RPMI-8226
[66] = tested on: MDA-MB-435
[67] = tested on: SNB-78
[68] = tested on: LOX IMVI
[69] = tested on: RXF 631

Nc1nc2[nH]cnc2c(=S)[nH]1 [THIOGUANINE]
GI50 [1]: 796 nM (active) | GI50 [2]: 818 nM (active) | GI50 [3]: 9820 nM (inactive) | GI50 [4]: 1560 nM (inactive) | GI50 [5]: 5640 nM (inactive) | GI50 [6]: 537 nM (active) | GI50 [7]: 962 nM (active) | GI50 [8]: 560 nM (active) | GI50 [9]: 1450 nM (inactive) | GI50 [10]: 2070 nM (inactive) | GI50 [11]: 1310 nM (inactive) | GI50 [12]: 6280 nM (inactive) | GI50 [13]: 8450 nM (inactive) | GI50 [14]: 849 nM (active) | GI50 [15]: 701 nM (active) | GI50 [16]: 1080 nM | GI50 [17]: 1000 nM (active) | GI50 [18]: 548 nM (active) | GI50 [19]: 692 nM (active) | GI50 [20]: 780 nM (active) | GI50 [21]: 621 nM (active) | GI50 [22]: 1920 nM (inactive) | GI50 [23]: 865 nM (active) | GI50 [24]: 4850 nM (inactive) | GI50 [25]: 9400 nM (inactive) | GI50 [26]: 687 nM (active) | GI50 [27]: 269 nM (active) | GI50 [28]: 782 nM (active) | GI50 [29]: 1080 nM (active) | GI50 [30]: 3040 nM (inactive) | GI50 [31]: 3500 nM (inactive) | GI50 [32]: 1090 nM (active) | GI50 [33]: 2510 nM (inactive) | GI50 [34]: 1130 nM (inactive) | GI50 [35]: 624 nM (active) | GI50 [36]: 76900 nM (inactive) | GI50 [37]: 3630 nM (inactive) | GI50 [38]: 385 nM (active) | GI50 [39]: 2100 nM (inactive) | GI50 [40]: 1280 nM (inactive) | GI50 [41]: 895 nM (active) | GI50 [42]: 1450 nM (inactive) | GI50 [43]: 5120 nM (inactive) | GI50 [44]: 169 nM (active) | GI50 [45]: 1860 nM (inactive) | GI50 [46]: 767 nM (active) | GI50 [47]: 182 nM (active) | GI50 [48]: 776 nM (active) | GI50 [49]: 1010 nM (active) | GI50 [50]: 2030 nM (inactive) | GI50 [51]: 1110 nM (active) | GI50 [52]: 1480 nM (inactive) | GI50 [53]: 671 nM (active) | GI50 [54]: 1050 nM (active) | GI50 [55]: 445 nM (active) | GI50 [56]: 1100 nM (active) | GI50 [57]: 957 nM (active) | GI50 [58]: 4410 nM (inactive) | GI50 [59]: 538 nM (active) | GI50 [60]: 1750 nM (inactive) | GI50 [61]: 1090 nM (active) | GI50 [62]: 1710 nM (inactive) | GI50 [63]: 962 nM (active) | GI50 [64]: 6680 nM (inactive) | GI50 [65]: 438 nM (active) | GI50 [66]: 851 nM (active) | GI50 [67]: 2230 nM (inactive) | GI50 [68]: 207 nM (active) | GI50 [69]: 527 nM (active)
